From ChEMBL document CHEMBL5512638, “Novel pyrrole based CB2 agonists: New insights on CB2 receptor role in regulating neurotransmitters' tone” (Eur J Med Chem, 2024)

Key:
[1] = target: T1, Cannabinoid receptor 1 (Homo sapiens, UniProt P21554); test: Displacement of [3H]CP55940 from recombinant human CB1 receptor expressed in HEK293 cell membrane incubated for 90 mins by competition binding assay; type: cell membranes
[2] = target: T1, Cannabinoid receptor 1; test: Displacement of [3H]CP55940 from recombinant human CB1 receptor expressed in HEK293 cell membrane assessed as inhibition constant incubated for 90 mins by competition binding assay; type: cell membranes
[3] = target: T2, Cannabinoid receptor 2 (Homo sapiens, UniProt P34972); test: Displacement of [3H]CP55940 from recombinant human CB2 receptor expressed in HEK293 cell membrane incubated for 90 mins by competition binding assay; type: cell membranes
T2 sequence (P34972 whole entry): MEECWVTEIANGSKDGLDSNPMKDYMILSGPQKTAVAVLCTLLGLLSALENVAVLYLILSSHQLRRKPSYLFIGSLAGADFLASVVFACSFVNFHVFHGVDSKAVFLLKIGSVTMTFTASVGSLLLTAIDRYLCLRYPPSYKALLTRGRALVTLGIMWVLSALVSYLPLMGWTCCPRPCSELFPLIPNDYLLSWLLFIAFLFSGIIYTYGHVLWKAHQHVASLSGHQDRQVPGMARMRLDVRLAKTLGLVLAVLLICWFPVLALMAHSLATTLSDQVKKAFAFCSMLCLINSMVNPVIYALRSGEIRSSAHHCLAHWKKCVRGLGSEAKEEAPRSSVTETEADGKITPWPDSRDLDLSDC

[4] = target: T2, Cannabinoid receptor 2; test: Displacement of [3H]CP55940 from recombinant human CB2 receptor expressed in HEK293 cell membrane assessed as inhibition constant incubated for 90 mins by competition binding assay; type: cell membranes
[5] = target: T2, Cannabinoid receptor 2; test: Agonist activity at human CB2 receptor expressed in CHO-K1 cells assessed as reduction in NKH-477 induced cAMP production by chemiluminescence based cAMP hunter assay; type: functional, cell-based
[6] = system: Mus musculus; test: (§1) Cognitive enhancing activity in scopolamine induced amnesia male C57/BL6J mouse model assessed as latency time to enter novel arm at 1 mg/kg, ip preadministered with compound for 10 mins followed by scopolamine administration for 30 mins and measured after 30 mins by Y-maze test (reference value: 21.93 +/- 0.78 sec); type: functional; conditions: time 70 min, 1.167 h
[7] = target: T2, Cannabinoid receptor 2; test: Partial agonist activity at human CB2 receptor expressed in CHO-K1 cells assessed as reduction in NKH-477 induced cAMP production by chemiluminescence based cAMP hunter assay; type: functional, cell-based
[8] = target: T2, Cannabinoid receptor 2; test: Partial agonist activity at human CB2 receptor expressed in CHO-K1 cells assessed as reduction in NKH-477 induced cAMP production by measuring maximal efficacy by chemiluminescence based cAMP hunter assay relative to control; type: functional, cell-based; conditions: filed as partial agonist
[9] = Chemical stability of compound in phosphate buffer at pH 7.4 assessed as compound remaining at 5 uM measured after 0.5 hrs by UHPLC-MS analysis; type: physicochemical; conditions: read-out: Stability
[10] = Chemical stability of compound in phosphate buffer at pH 7.4 assessed as compound remaining at 5 uM measured after 1 hrs by UHPLC-MS analysis; type: physicochemical; conditions: read-out: Stability
[11] = Chemical stability of compound in phosphate buffer at pH 7.4 assessed as compound remaining at 5 uM measured after 1.5 hrs by UHPLC-MS analysis; type: physicochemical; conditions: read-out: Stability
[12] = Chemical stability of compound in phosphate buffer at pH 7.4 assessed as compound remaining at 5 uM measured after 2 hrs by UHPLC-MS analysis; type: physicochemical; conditions: read-out: Stability
[13] = species: Homo sapiens; test: Selectivity ratio of Ki for displacement of [3H]CP55940 from recombinant human CB2 receptor expressed in HEK293 cell membrane to Ki for displacement of [3H]CP55940 from recombinant human CB1 receptor expressed in HEK293 cell membrane; type: cell membranes
[14] = system: Mus musculus; test: as §1, with “as” for “as latency time to enter”, “arm exploration time” for “arm”, “9.28” for “21.93”, “1.03” for “0.78”; type: functional; conditions: time 70 min, 1.167 h

T1 sequence (P21554 whole entry): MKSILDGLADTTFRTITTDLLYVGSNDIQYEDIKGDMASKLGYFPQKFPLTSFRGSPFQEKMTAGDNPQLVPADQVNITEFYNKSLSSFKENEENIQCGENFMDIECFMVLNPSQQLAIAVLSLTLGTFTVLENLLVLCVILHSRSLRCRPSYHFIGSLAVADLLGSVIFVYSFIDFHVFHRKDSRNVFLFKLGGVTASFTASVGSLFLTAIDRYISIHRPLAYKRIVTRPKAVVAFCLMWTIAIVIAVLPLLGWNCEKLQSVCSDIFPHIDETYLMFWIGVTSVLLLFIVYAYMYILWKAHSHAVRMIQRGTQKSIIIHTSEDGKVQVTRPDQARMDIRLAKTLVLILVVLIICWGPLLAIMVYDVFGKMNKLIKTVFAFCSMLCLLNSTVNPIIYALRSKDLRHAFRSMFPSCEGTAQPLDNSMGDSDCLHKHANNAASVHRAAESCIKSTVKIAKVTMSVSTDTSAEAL

SMILES | IC50 ([1]; read-out: IC50) | Ki ([2]; read-out: Ki) | IC50 ([3]; read-out: IC50) | Ki ([4]; read-out: Ki) | other results
CC(=O)NCCCCn1cccc1C(=O)c1ccccc1Cl | > 10 µM | > 10 µM | > 10 µM | > 10 µM | –
CC(=O)Oc1cccc(Cn2cccc2C(=O)c2ccccc2Cl)c1 | > 10 µM | > 10 µM | 9.83 µM | 1.56 µM | –
CCCC(C)(C)c1ccc2c(c1)OC(C)(C)[C@@H]1CC=C(C)C[C@@H]21 | – | 0.281 µM | – | 0.005 µM | EC50 [5]: 0.09 µM
CCCCCn1cccc1C(=O)c1ccc(C)cc1 | > 10 µM | > 10 µM | > 10 µM | > 10 µM | –
COc1ccc(C(=O)c2c(C)n(CCN3CCOCC3)c3cc(I)ccc23)cc1 | – | – | – | – | Time [6]: 9.28 s
CC(=O)OCCCCn1cccc1C(=O)NCc1ccccc1 | > 10 µM | > 10 µM | > 10 µM | > 10 µM | –
O=C(NCc1ccc(O)cc1)c1cccn1Cc1ccc(F)cc1 | > 10 µM | > 10 µM | > 10 µM | > 10 µM | –
O=C(CO)Nc1cccc(NC(=O)c2cccnc2)c1 | > 10 µM | > 10 µM | > 10 µM | > 10 µM | –
O=C(c1ccccc1Cl)c1cccn1CCCCO | > 10 µM | > 10 µM | > 10 µM | > 10 µM | –
CCCCCNC(=O)c1cccn1Cc1ccc(F)cc1 | > 10 µM | > 10 µM | > 10 µM | > 10 µM | –
O=C(CCO)N[C@@H](Cc1c[nH]c2ccccc12)C(=O)Nc1ccc(O)cc1 | > 10 µM | > 10 µM | > 10 µM | > 10 µM | –
O=C(CCO)N[C@@H](Cc1ccc(O)cc1)C(=O)Nc1ccc(O)cc1 | > 10 µM | > 10 µM | > 10 µM | > 10 µM | –
CC(=O)Oc1ccc(Cn2cccc2C(=O)c2ccccc2Cl)cc1 | > 10 µM | > 10 µM | > 10 µM | > 10 µM | –
O=C(c1ccccc1Cl)c1cccn1Cc1cccc(O)c1 | > 10 µM | > 10 µM | > 10 µM | > 10 µM | –
O=C(NCc1cccc(O)c1)c1cccn1Cc1ccc(F)cc1 | > 10 µM | > 10 µM | > 10 µM | > 10 µM | –
Cc1ccc(Cn2cccc2C(=O)c2ccc(Cl)cc2)cc1 | > 10 µM | > 10 µM | > 10 µM | > 10 µM | –
O=C(O)CCCn1cccc1C(=O)c1ccccc1Cl | > 10 µM | > 10 µM | > 10 µM | > 10 µM | –
O=C(Nc1cccc(CO)c1)c1cccn1Cc1ccc(F)cc1 | > 10 µM | > 10 µM | 1.59 µM | 0.25 µM | –
N=C(N)NCCCn1cccc1C(=O)c1ccccc1Cl | > 10 µM | > 10 µM | > 10 µM | > 10 µM | –
Cc1ccc(C(=O)c2cccn2S(=O)(=O)c2ccc(C)cc2)cc1 | > 10 µM | > 10 µM | > 10 µM | > 10 µM | –
O=C(c1ccc(Cl)cc1)c1cccn1Cc1ccco1 | > 10 µM | > 10 µM | > 10 µM | > 10 µM | –

SMILES | IC50 ([1]; read-out: IC50) | Ki ([2]; read-out: Ki) | IC50 ([3]; read-out: IC50) | Ki ([4]; read-out: Ki) | other results
Cc1ccc(S(=O)(=O)n2cccc2C(=O)c2ccc(Cl)cc2)cc1 | – | – | – | – | IC50 ([1]; hek293): Not Determined(Insoluble); Ki ([2]; hek293): Not Determined(Insoluble); IC50 ([3]; hek293): Not Determined(Insoluble); Ki ([4]; hek293): Not Determined(Insoluble)
Cc1ccc(CNC(=O)c2cccn2Cc2ccc(F)cc2)cc1 | > 10 µM | > 10 µM | > 10 µM | > 10 µM | –
O=C(NCc1ccccc1)c1cccn1Cc1ccc(F)cc1 | > 10 µM | > 10 µM | 4.6 µM | 0.706 µM | –
COC(=O)CCCn1cccc1C(=O)c1ccccc1Cl | > 10 µM | > 10 µM | > 10 µM | > 10 µM | –
CC(=O)OCCCCn1cccc1C(=O)c1ccccc1Cl | > 10 µM | > 10 µM | 7.91 µM | 1.26 µM | –
O=C(NCCO)[C@@H]1Cc2ccccc2CN1C(=O)c1ccc(O)cc1 | > 10 µM | > 10 µM | > 10 µM | > 10 µM | –
O=C(c1ccccc1Cl)c1cccn1Cc1ccc(O)cc1 | > 10 µM | > 10 µM | > 10 µM | > 10 µM | –
O=C(Nc1cccc2ccccc12)c1cccn1Cc1ccc(F)cc1 | > 10 µM | > 10 µM | 0.39 µM | 0.06 µM | EC50 [7]: 6.11 µM; Emax [8]: 43.1%; remaining at 0.5 h, 5 µM [9]: 101%; remaining at 1 h, 5 µM [10]: 101%; remaining at 1.5 h, 5 µM [11]: 103%; remaining at 2 h, 5 µM [12]: 99.2%
Nc1ccc(CNC(=O)c2cccn2Cc2ccc(F)cc2)cc1 | > 10 µM | > 10 µM | > 10 µM | > 10 µM | –
O=C(NC12CC3CC(CC(C3)C1)C2)c1cccn1Cc1ccc(F)cc1 | > 10 µM | > 10 µM | 0.07 µM | 0.01 µM | EC50 [5]: 2.36 µM; remaining at 0.5 h, 5 µM [9]: 98.6%; remaining at 1 h, 5 µM [10]: 98.8%; remaining at 1.5 h, 5 µM [11]: 99.2%; remaining at 2 h, 5 µM [12]: 102%
O=C(O)CC(=O)N[C@@H](Cc1c[nH]c2ccccc12)C(=O)Nc1ccc(O)cc1 | > 10 µM | > 10 µM | > 10 µM | > 10 µM | –
Nc1cccc(C(=O)Nc2cccc(NC(=O)CO)c2)c1 | > 10 µM | > 10 µM | > 10 µM | > 10 µM | –
Cc1ccc(S(=O)(=O)n2cccc2C(=O)c2ccccc2)cc1 | > 10 µM | > 10 µM | > 10 µM | > 10 µM | –
CCOC(=O)CCCn1cccc1C(=O)c1ccccc1Cl | > 10 µM | > 10 µM | > 10 µM | > 10 µM | –
Cc1ccc(NC(=O)c2cccn2Cc2ccc(F)cc2)cc1 | 6.13 µM | 1.03 µM | 1.32 µM | 0.27 µM | Ratio Ki [13]: 5
O=C(OCCCCn1cccc1C(=O)c1ccccc1Cl)c1ccccc1 | > 10 µM | > 10 µM | > 10 µM | > 10 µM | –
O=C(NCc1ccco1)c1cccn1Cc1ccc(-c2ccccc2)cc1 | > 10 µM | > 10 µM | 1.47 µM | 0.23 µM | –
Cc1c(C(=O)NN2CCCCC2)nn(-c2ccc(Cl)cc2Cl)c1-c1ccc(I)cc1 | – | – | – | – | Time [6]: 11.01 s; Time [14]: 28.6 s
O=C(Nc1ccc(O)cc1)[C@@H]1Cc2ccccc2CN1C(=O)CCO | > 10 µM | > 10 µM | > 10 µM | > 10 µM | –
O=C(c1ccccc1Cl)c1cccn1CC12CC3CC(CC(C3)C1)C2 | > 10 µM | > 10 µM | 4.22 µM | 0.67 µM | –
CC(=O)OCCn1cccc1C(=O)c1ccccc1Cl | > 10 µM | > 10 µM | > 10 µM | > 10 µM | –
